The text below walks through data of PubChem BioAssay (NCI).

Some test systems named below: OVCAR-3 ovarian; BT-549 breast; SK-MEL-5 melanoma; MDA-MB-231 breast; SR leukemia; UO-31 renal; CCRF-CEM leukemia; SF-268 CNS; SNB-19 CNS; A549 NSCLC.
Common to all, as to experiment: inhibition of tumour cell growth, NCI panel, 48 h

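Five concentrations, 48 hours, 96-well plates. GI50 = concentration required for 50% inhibition of growth. TGI marks complete inhibition of growth.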

With `Cc1cc(O)ccc1C1(c2ccc(O)cc2C)OC(=O)c2ccccc21`, the GI50 with OVCAR-3 ovarian was 16.4 µM; in the assay with BT-549 breast it was 17.1 µM; in the assay with SK-MEL-5 melanoma, 18 µM; in the assay on MDA-MB-231 breast, 21.4 µM; with SR leukemia, 30.3 µM; with UO-31 renal it was 18.1 µM. The GI50 is 24.4 µM with CCRF-CEM leukemia, 19 µM in the assay on SF-268 CNS, 18.7 µM in the assay on SNB-19 CNS and 20.8 µM in the assay with A549 NSCLC. Further, the TGI in the assay with OVCAR-3 ovarian was 30.1 µM; in the assay on BT-549 breast, 36.4 µM; with SK-MEL-5 melanoma, 32.1 µM; in the assay on MDA-MB-231 breast it was 48.9 µM; in the assay with SR leukemia, over 100 µM; in the assay on UO-31 renal, 36.7 µM. Also, the TGI in the assay on CCRF-CEM leukemia worked out at 67.7 µM; in the assay with SF-268 CNS, 43.9 µM; in the assay with SNB-19 CNS, 35.2 µM; with A549 NSCLC, 37 µM.
Consider `Cc1nc2ccc(-n3ncc(C(=O)c4cc5ccccc5[nH]4)c3N)cc2[nH]1`, for which the GI50 in the assay with OVCAR-3 ovarian is 11.2 µM; in the assay with BT-549 breast it was 5.43 µM; with SK-MEL-5 melanoma, 5.46 µM; with MDA-MB-231 breast, 10.6 µM; with SR leukemia it was 2.82 µM; with UO-31 renal, 10 µM. Moreover, the GI50 in the assay on CCRF-CEM leukemia is 9.24 µM; in the assay on SF-268 CNS, 6.63 µM; in the assay on SNB-19 CNS, 15.4 µM; in the assay on A549 NSCLC, 8.46 µM. The TGI in the assay with OVCAR-3 ovarian was over 100 µM; with BT-549 breast, 38.6 µM; with SK-MEL-5 melanoma, 18.4 µM; with MDA-MB-231 breast it was 40.7 µM; with SR leukemia, 31.2 µM; with UO-31 renal, 33.2 µM. Besides, the TGI was 96 µM in the assay with CCRF-CEM leukemia, over 100 µM in the assay on SF-268 CNS, over 100 µM in the assay on SNB-19 CNS and over 100 µM with A549 NSCLC.
As for `O=C1/C(=C/c2ccc(Cl)cc2)CN(Cc2cn(CCCNc3ccnc4cc(Cl)ccc34)nn2)C/C1=C\c1ccc(Cl)cc1`, the GI50 is 0.56 µM in the assay with OVCAR-3 ovarian; 1.64 µM with BT-549 breast; 1.72 µM with SK-MEL-5 melanoma; 0.757 µM in the assay with MDA-MB-231 breast; 0.379 µM in the assay with SR leukemia; 1.16 µM in the assay with UO-31 renal. In addition, the GI50 in the assay on CCRF-CEM leukemia was 0.426 µM; with SF-268 CNS, 0.54 µM; with SNB-19 CNS, 0.643 µM; in the assay on A549 NSCLC, 1.15 µM. Further, the TGI in the assay with OVCAR-3 ovarian was found to be 1.85 µM; with BT-549 breast it was 3.18 µM; with SK-MEL-5 melanoma, 3.14 µM; in the assay on MDA-MB-231 breast, 2.45 µM; with SR leukemia, 1.93 µM; with UO-31 renal, 2.45 µM. In addition, the TGI in the assay on CCRF-CEM leukemia was over 20.5 µM; in the assay on SF-268 CNS it was 2.01 µM; with SNB-19 CNS it was 1.86 µM; in the assay on A549 NSCLC it was 2.56 µM.
As for `c1cc[n+](Cc2c3ccccc3cc3c2ccc2ccccc23)cc1`, the GI50 with OVCAR-3 ovarian is 2.6 µM; in the assay on BT-549 breast it was 1.73 µM; in the assay with SK-MEL-5 melanoma it was 1.77 µM; in the assay with MDA-MB-231 breast, 6.08 µM; in the assay on SR leukemia, 2.64 µM; with UO-31 renal, 27.5 µM. Besides, the GI50 in the assay with CCRF-CEM leukemia is 4.73 µM; with SF-268 CNS, 1.13 µM; in the assay on SNB-19 CNS, 1.18 µM; with A549 NSCLC, 7.31 µM. Moreover, the TGI is 11.4 µM with OVCAR-3 ovarian; 4.6 µM in the assay with BT-549 breast; 3.89 µM with SK-MEL-5 melanoma; 20 µM with MDA-MB-231 breast; 11.6 µM in the assay with SR leukemia; over 100 µM in the assay on UO-31 renal. Further, the TGI in the assay on CCRF-CEM leukemia came out at 24 µM; in the assay on SF-268 CNS, 5.48 µM; with SNB-19 CNS, 7.85 µM; with A549 NSCLC, 27.7 µM.
As to `COc1cccc(C(=O)NNc2nc(Cl)nc(N3CCN(C(c4ccccc4)c4ccccc4)CC3)n2)c1`, the GI50 is 1.72 µM in the assay with OVCAR-3 ovarian; 1.63 µM in the assay on BT-549 breast; 15.9 µM with SK-MEL-5 melanoma; 1.88 µM with MDA-MB-231 breast; 0.852 µM in the assay with SR leukemia; 3.14 µM with UO-31 renal. Besides, the GI50 is 2.23 µM in the assay with CCRF-CEM leukemia, 2.07 µM in the assay with SF-268 CNS, 1.88 µM in the assay with SNB-19 CNS and 22.1 µM in the assay on A549 NSCLC. For the same molecule, the TGI in the assay with OVCAR-3 ovarian turned out to be 3.28 µM; with BT-549 breast, 3.31 µM; in the assay on SK-MEL-5 melanoma it was 29.7 µM; in the assay on MDA-MB-231 breast, 3.85 µM; in the assay with SR leukemia it was 4.26 µM; in the assay with UO-31 renal it was 22 µM. The TGI with CCRF-CEM leukemia amounted to 30.4 µM; with SF-268 CNS it was 4.73 µM; in the assay with SNB-19 CNS it was 3.98 µM; with A549 NSCLC it was 83.6 µM.
